Assay results reported in PubChem BioAssay AID720590 (Broad Institute, 2013).
Calls of active or inactive are those of the source. The rule behind the calls is not given here.

target: Mycobacterium tuberculosis BioA (adenosylmethionine-8-amino-7-oxononanoate aminotransferase); assay: inhibition of M. tuberculosis BioA aminotransferase – biochemical, plate reader, dry powder samples, dose response (AID 720590); conditions: M. tuberculosis BioA enzyme assay

Structure (SMILES) | AC50
COc1cccc(C(=O)N2CCN(c3ccc(C(C)=O)cc3)CC2)c1 | 602 nM
O=C(Nc1ccc(F)cc1)N1CCN(c2ccccc2)CC1 | 6630 nM
COc1cccc(NC(=O)CCC2CCN(C(=O)c3ccc(C(C)=O)s3)CC2)c1 | 225 nM
O=C(c1ccc2c(c1)OCO2)N1CCN(Cc2ccccc2)CC1 | > 20000 nM (inactive)
COc1ccc(N2CCN(C(=O)c3ccc4c(c3)OCO4)CC2)cc1 | 5320 nM
CC(=O)c1ccc(N2CCN(C(=O)c3cccnc3)CC2)cc1 | 2040 nM
O=C(O)CC/C(=C\c1ccc([N+](=O)[O-])cc1)c1nc2ccccc2s1 | 988 nM
COc1ccc(-c2cc(C(F)(F)F)n3nc(C(=O)Nc4cccnc4)cc3n2)cc1 | < 80 nM
CC(=O)c1ccc(N2CCN(C(=O)c3ccc(Cl)cc3)CC2)cc1 | 751 nM
CCN(CC)c1ccc2cc(C(=O)c3cccs3)c(=O)oc2c1 | < 80 nM
CC(=O)c1ccc(N2CCN(C(=O)c3cccc(F)c3)CC2)cc1 | 731 nM
Cc1ccc(/C=C(\CCC(=O)O)c2nc3ccccc3s2)cc1 | 7240 nM
Cc1cc(C)n2nc(C(=O)Nc3cccnc3)cc2n1 | 150 nM
CC(=O)c1ccc(N2CCN(C(=O)c3ccc(Br)cc3)CC2)c(F)c1 | < 80 nM
CC(=O)c1ccc(N2CCN(C(=O)c3cccc(Cl)c3)CC2)cc1 | 95.5 nM
O=C(c1ccc2c(c1)OCO2)N1CCN(c2ccc(Cl)cc2)CC1 | 4320 nM
CC(C)(C)c1ccc(C(=O)N2CCN(c3ccc4c(c3)OCO4)CC2)cc1 | > 20000 nM (inactive)
CCOC(=O)N1CCN(C(=O)Nc2ccc3snnc3c2)CC1 | 424 nM
O=C(c1ccc2c(c1)OCO2)N1CCN(c2ccccc2)CC1 | > 20000 nM (inactive)
O=C(Nc1ccc2snnc2c1)N1CCN(c2ccccc2)CC1 | < 80 nM
CC(=O)c1ccc(N2CCN(C(=O)c3ccc4ncsc4c3)CC2)cc1 | 246 nM
COc1cccc(NC(=O)N2CCN(c3ccccc3)CC2)c1 | > 20000 nM (inactive)
CC(=O)c1ccc(N2CCN(C(=O)c3ccccc3)CC2)cc1 | 161 nM

Structure (SMILES) | AC50
CC(=O)c1ccc(N2CCN(C(=O)c3ccc4c(c3)OCO4)CC2)cc1 | < 80 nM
Cc1ccc(-c2cc(C(F)(F)F)n3nc(C(=O)Nc4cccnc4)cc3n2)cc1 | < 80 nM
O=C(Nc1cccnc1)c1cnn2c(C(F)F)cc(C3CC3)nc12 | 252 nM
COc1ccc(C(=O)N2CCN(c3ccc(C(C)=O)cc3)CC2)cc1 | 1280 nM
O=C(COc1ccc2ccc(=O)oc2c1)N1CCN(c2ccc(F)cc2)CC1 | 162 nM
CC(=O)c1ccc(N2CCN(C(=O)c3ccc(F)cc3)CC2)cc1 | 300 nM
Cc1ccc(/C=C(\CCC(=O)O)c2nc3ccccc3s2)cc1[N+](=O)[O-] | < 80 nM
Cc1cc(C)n2nc(C(=O)Nc3cccnc3)nc2n1 | 673 nM
CC(=O)c1ccc(N2CCN(Cc3ccc4c(c3)OCO4)CC2)cc1 | 133 nM
Cc1ccc(/C=C(\CCCC(=O)O)c2nc3ccccc3s2)cc1[N+](=O)[O-] | 953 nM
COC(=O)c1c(C(=O)OC)c(-c2cccc(F)c2)n2c1CS(=O)C2 (stereo unspecified) | 115 nM
O=C(Nc1ccc2snnc2c1)N1CCCCC1 | 1460 nM
O=C(Nc1ccc2snnc2c1)N1CCOCC1 | 896 nM
O=C(Nc1cccc(F)c1)N1CCN(c2ccccc2)CC1 | 4330 nM
O=C(Nc1ccc(Cl)c(-c2nc3ccccc3[nH]2)c1)c1cccnc1 | 181 nM
CCc1ccc(N2CCN(C(=O)c3ccc4c(c3)OCO4)CC2)cc1 | > 20000 nM (inactive)
O=C(Nc1cccnc1)c1cc2nc(-c3cccs3)cc(C(F)(F)F)n2n1 | 87.1 nM
O=C(O)CC/C(=C\c1ccccc1[N+](=O)[O-])c1nc2ccccc2s1 | > 20000 nM (inactive)
Cc1ccccc1/C=C(\CCC(=O)O)c1nc2ccccc2s1 | 7620 nM
CC(=O)c1ccc(N2CCN(C(=O)c3ccc(C)cc3)CC2)cc1 | 746 nM
CC(=O)c1ccc(N2CCN(C(=O)c3ccc4c(c3)OCCO4)CC2)cc1 | 2830 nM
CCc1ccc(C(=O)N2CCN(Cc3ccc4c(c3)OCO4)CC2)cc1 | > 20000 nM (inactive)
COc1cc(/C=C/C(=O)Nc2cccnc2)cc(OC)c1OC | 107 nM

same assay, conditions: M. tuberculosis BioA enzyme assay, at 10 µM (top of the series)

Structure (SMILES) | activity change, negative = inhibition
O=C(Nc1ccccc1)N1CCN(c2ccccc2)CC1 | inactive
Cc1nc2cc(NC(=O)N3CCN(c4ccccc4)CC3)ccc2o1 | inactive
COc1ccc(NC(=O)N2CCN(c3ccccc3)CC2)cc1 | inactive
O=C(c1ccc2c(c1)OCO2)N1CCN(c2ccc(F)cc2)CC1 | inactive
O=C(Nc1ccc(Cl)cc1)c1cc2nc(C3CC3)cc(C(F)(F)F)n2n1 | inactive
O=C(Nc1cccnc1)c1cnn2c(C(F)(F)F)cc(-c3ccccc3)nc12 | inactive
Cc1ccc(NC(=O)N2CCN(c3ccccc3)CC2)cc1 | inactive
O=C(Nc1ccncc1)c1cc2nc(C3CC3)cc(C(F)F)n2n1 | inactive
O=C(Nc1ccc2[nH]ccc2c1)N1CCN(c2ccccc2)CC1 | inactive
Cc1nc2ccc(NC(=O)N3CCN(c4ccccc4)CC3)cc2s1 | inactive
